{"source": "patent US20230277560A1", "about": "“USE OF C[…] THE TREATMENT OF SEIZURES ASSOCIATED WITH CHRNA4 MUTATION” (GW Research Limited, priority 2020, published 2023)", "test_system": "seizures associated with CHRNA4 mutation", "assay": "Open label, expanded-access program: seizure frequency in a patient with CHRNA4 mutation", "assay_type": "in vivo, human", "settings": "for Seizure frequency, Absence: baseline 0.0; for Seizure frequency, Absence / Seizure frequency, Tonic-clonic / Seizure frequency, Atonic / Seizure frequency, Myoclonic: concomitant rufinamide; for Seizure frequency, Tonic-clonic: baseline 0.4; for Seizure frequency, Atonic / Seizure frequency, Myoclonic: baseline 2800.0", "procedure": "The subject was required to be on one or more AEDs at stable doses for a minimum of two weeks prior to baseline and to have stable vagus nerve stimulation (VNS) settings and ketogenic diet ratios for a minimum of four weeks prior to baseline.\nThe patient was administered botanically derived purified CBD in a 100 mg/mL sesame oil-based solution. Dose was increased to a goal of 25 mg/kg/day.\nA maximum dose of 50 mg/kg/day could be utilised for the patient if they were tolerating the medication but had not achieved seizure control; the patient had further weekly titration by 5 mg/kg/day.\nThere was one patient in this study, and they received CBD for 24 weeks. Modifications were made to concomitant AEDs as per clinical indication.\nSeizure frequency, intensity, and duration were recorded by caregivers in a diary during a baseline period of at least 28 days. Changes in seizure frequency relative to baseline were calculated after at least 2 weeks and at defined timepoints of treatment.\nPatients may be defined as responders if they had more than 50% reduction in seizure frequency compared to baseline. The percent change in seizure frequency was calculated as follows: […]\nThe percent change of seizure frequency may be calculated for any time interval where seizure number has been recorded. For the purpose of this example the percent change of seizure frequency for the end of the treatment period was calculated as follows: […]", "key": {"[1]": {"settings": "Patient 1, 4 weeks, CBD 15.0 mg/kg/day"}, "[2]": {"settings": "Patient 1, 8 weeks, CBD 25.0 mg/kg/day"}, "[3]": {"settings": "Patient 1, 12 weeks, CBD 25.0 mg/kg/day"}, "[4]": {"settings": "Patient 1, 16 weeks, CBD 25.0 mg/kg/day"}, "[5]": {"settings": "Patient 1, 24 weeks, CBD 23.8 mg/kg/day"}, "[6]": {"settings": "Patient 1, treated for 24 weeks, relative to baseline"}}, "data": [{"compound": "C=C(C)[C@@H]1CCC(C)=C[C@H]1c1c(O)cc(CCCCC)cc1O", "note": "[CBD, cannabidiol]", "values": [{"measurement": "Seizure frequency, Absence", "setting": "[1]", "value": 0.0}, {"measurement": "Seizure frequency, Tonic-clonic", "setting": "[1]", "value": 1.0}, {"measurement": "Seizure frequency, Atonic", "setting": "[1]", "value": 2800.0}, {"measurement": "Seizure frequency, Myoclonic", "setting": "[1]", "value": 2800.0}, {"measurement": "Seizure frequency, Absence", "setting": "[2]", "value": 0.0}, {"measurement": "Seizure frequency, Tonic-clonic", "setting": "[2]", "value": 0.0}, {"measurement": "Seizure frequency, Atonic", "setting": "[2]", "value": 2800.0}, {"measurement": "Seizure frequency, Myoclonic", "setting": "[2]", "value": 2800.0}, {"measurement": "Seizure frequency, Absence", "setting": "[3]", "value": 0.0}, {"measurement": "Seizure frequency, Tonic-clonic", "setting": "[3]", "value": 1.0}, {"measurement": "Seizure frequency, Atonic", "setting": "[3]", "value": 2561.0}, {"measurement": "Seizure frequency, Myoclonic", "setting": "[3]", "value": 2560.0}, {"measurement": "Seizure frequency, Absence", "setting": "[4]", "value": 84.0}, {"measurement": "Seizure frequency, Tonic-clonic", "setting": "[4]", "value": 3.0}, {"measurement": "Seizure frequency, Atonic", "setting": "[4]", "value": 1260.0}, {"measurement": "Seizure frequency, Myoclonic", "setting": "[4]", "value": 840.0}, {"measurement": "frequency of atonic and myoclonic seizures (overall statement)", "setting": "Patient 1, 24 weeks treatment", "value": "effective in reducing the frequency"}, {"measurement": "Seizure frequency, Absence", "setting": "[5]", "value": 140.0}, {"measurement": "Seizure frequency, Tonic-clonic", "setting": "[5]", "value": 18.7}, {"measurement": "Seizure frequency, Atonic", "setting": "[5]", "value": 840.0}, {"measurement": "Seizure frequency, Myoclonic", "setting": "[5]", "value": 840.0}, {"measurement": "reduction in atonic seizures over the treatment period", "setting": "[6]", "value": 70, "unit": "%"}, {"measurement": "reduction in myoclonic seizures over the treatment period", "setting": "[6]", "value": 70, "unit": "%"}, {"measurement": "number of seizures associated with CHRNA4 mutation (conclusion)", "setting": "one patient, 24 weeks treatment", "value": "significantly reduce"}, {"measurement": "tonic-clonic, atonic, myoclonic and absence seizures (summary statement)", "setting": "open label, expanded-access program, patients with CHRNA4 mutation", "value": "significant reduction"}]}]}
